Reference: PMC11099041, “Tissue distribution and retention drives efficacy of rapidly clearing VHL-based PROTACs” (Communications Medicine, 2024)
Where “and” joins values, the source holds several entries; their conditions need not be identical. Equal values may be shown once.

Key:
[1] = Metabolite profiling in rat bile, urine and feces (radio-HPLC, LC-HRMS); type: in vivo; settings: in vivo, iv, 4 mg/kg
Protocol: Tissue homogenate samples at 24 hours were extracted as plasma samples. […] The pooled urine samples containing 10% MeOH were analyzed by liquid chromatography-high resolution mass spectrometry (LC-HRMS).
The pooled bile sample containing 10% MeOH was analyzed by LC-HRMS.
Feces samples obtained from BDC and intact rats were pooled separately across time intervals for each animal (5% w/v) and further pooled across animals for each group to generate a 0–68 hour pooled sample. Approximately 1–2 g of each pooled feces sample was extracted as the same protocol used for plasma samples. […] The reconstituted samples were analyzed by LC-HRMS.
The reconstituted samples were analyzed by LC-HRMS, with eluent fractions collected at 10-second intervals into 96-well plates containing solid scintillant. Radioactivity in each well was determined using TopCount analysis, and radiochemical profiles were generated based on radioactivity counts. Structural elucidation was performed based on mass spectral interpretation to identify metabolites.
For metabolite profiling and identification, LC-MS analysis used a Shimadzu/Nexera LC-30 AD liquid chromatographic system and a ThermoFisher Scientific Q Exactive with a positive/negative heated electrospray interface. The column was a Waters XSelect HSS T3 4.6 mm × 250 mm, 3.5 µm and maintained at 40 °C. The mobile phases were (A) 20 mM ammonium acetate in water and (B) acetonitrile. […] The flow was 1 mL/min and split 20% to mass analysis and 80% collected for radioactivity counting. Mass spectrometry data was acquired with full scans at a resolution of 70,000 for a m/z range of 300 to 1500, and MS/MS scans were acquired at a resolution of 17,500. The mass spectrometer was operated with a normalized collision energy of 30 (ESI+), S-Lens RF level of 60, source voltage of +3.5 kV, Capillary temperature of 320 °C, and Probe heater temperature of 300 °C.

CYP3A4/5 = experiment: Reversible P450 inhibition in HLM; type: biochemical; settings: human, human liver microsomes
Protocol: The reversible P450 inhibition assay was conducted in triplicate on a BioCel 1200 System, V11 (Agilent, CA), as previously described by Kosaka, et al.[28] […] […] P450 activity was expressed as the peak area ratio of a P450-specific metabolite formed relative to its internal standard, and inhibition percentage was calculated from P450 activity of samples relative to the solvent control. Inhibition data were processed using Prism (GraphPad Software, San Diego, CA) to calculate IC50 values for each P450 enzyme.

HCC2302 xenograft = experiment: Mouse efficacy study, tumor volume; type: in vivo
Protocol: (§1) Female C.B-17 SCID (Inbred) mice that weighed 16–20 g were inoculated with 10 million HCC2302 lung adenocarcinoma cells (suspended in a mixture of Hank’s Balanced Salt Solution containing Matrigel at a 1:1 ratio) in the right flank subcutaneously. Tumors were monitored until they reached a mean tumor volume of 110–167 mm^3. The mean tumor volume across all three groups was 141 ± 16.64 mm^3 (mean ± SD) at the initiation of dosing (Study WF-31, n = 10). […] Tumor volumes were measured in two dimensions (length and width) using Ultra Cal-IV calipers. The tumor volume was calculated with the following formula: Tumor size (mm^3) = (longer measurement × shorter measurement^2)/2. Animal body weights were measured using an Adventura scale. Percent weight change was calculated using the following formula: Group percent weight change = (new weight − initial weight)/ initial weight) × 100%.
(§2) In a separate study, tumors were monitored until they reached a mean tumor volume of 121–159 mm^3. The mean tumor volume across all three groups was 138 ± 10.26 mm^3 (mean ± SD) at the initiation of dosing (Study WF-34, n = 10).

[2] = Body weight in mouse efficacy study; type: in vivo; settings: in g (unit assumed)
Protocol: as §1, §2

[3] = Bioavailability after PO administration (peer review reply); type: in vivo; settings: authors' reply in peer review file
CYP2C19 = target: T1, CYP2C19 (Homo sapiens, UniProt P33261); experiment: Reversible P450 inhibition in HLM; type: biochemical; settings: substrate Mephenytoin
T1 construct: phosphate buffer (100 mM, pH 7.4) containing human liver microsomes (HLM); from tissue; host or cells: human liver microsomes
T1 sequence (P33261 whole entry): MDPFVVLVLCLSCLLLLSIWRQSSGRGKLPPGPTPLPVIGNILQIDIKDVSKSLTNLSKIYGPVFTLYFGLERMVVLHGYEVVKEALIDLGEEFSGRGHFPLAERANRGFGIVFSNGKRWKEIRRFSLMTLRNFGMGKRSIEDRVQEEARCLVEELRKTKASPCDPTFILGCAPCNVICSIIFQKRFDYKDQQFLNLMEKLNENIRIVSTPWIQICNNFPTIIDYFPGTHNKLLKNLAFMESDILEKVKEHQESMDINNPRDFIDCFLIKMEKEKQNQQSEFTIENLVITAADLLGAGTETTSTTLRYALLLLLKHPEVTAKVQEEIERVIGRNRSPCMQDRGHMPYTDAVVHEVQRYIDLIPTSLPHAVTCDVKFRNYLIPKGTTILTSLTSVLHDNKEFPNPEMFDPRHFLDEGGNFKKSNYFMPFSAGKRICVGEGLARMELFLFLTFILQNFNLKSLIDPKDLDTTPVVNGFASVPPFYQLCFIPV
Protocol: (§3) The reversible P450 inhibition assay was conducted in triplicate on a BioCel 1200 System, V11 (Agilent, CA), as previously described by Kosaka, et al.[28] […] Individual P450 specific substrates included midazolam for CYP3A4/5, dextromethorphan for CYP2D6, S-(+)-mephenytoin for CYP2C19, S-(-)-warfarin for CYP2C9, paclitaxel for CYP2C8, and tacrine for CYP1A2. P450 activity was expressed as the peak area ratio of a P450-specific metabolite formed relative to its internal standard, and inhibition percentage was calculated from P450 activity of samples relative to the solvent control. Inhibition data were processed using Prism (GraphPad Software, San Diego, CA) to calculate IC50 values for each P450 enzyme.

CYP2D6 = target: T2, CYP2D6 (Homo sapiens, UniProt P10635); experiment: Reversible P450 inhibition in HLM; type: biochemical; settings: human liver microsomes, pH 7.4, probe dextromethorphan, substrate Dextromethorphan
T2 construct: phosphate buffer (100 mM, pH 7.4) containing human liver microsomes (HLM); from tissue; host or cells: human liver microsomes
T2 sequence (P10635 whole entry): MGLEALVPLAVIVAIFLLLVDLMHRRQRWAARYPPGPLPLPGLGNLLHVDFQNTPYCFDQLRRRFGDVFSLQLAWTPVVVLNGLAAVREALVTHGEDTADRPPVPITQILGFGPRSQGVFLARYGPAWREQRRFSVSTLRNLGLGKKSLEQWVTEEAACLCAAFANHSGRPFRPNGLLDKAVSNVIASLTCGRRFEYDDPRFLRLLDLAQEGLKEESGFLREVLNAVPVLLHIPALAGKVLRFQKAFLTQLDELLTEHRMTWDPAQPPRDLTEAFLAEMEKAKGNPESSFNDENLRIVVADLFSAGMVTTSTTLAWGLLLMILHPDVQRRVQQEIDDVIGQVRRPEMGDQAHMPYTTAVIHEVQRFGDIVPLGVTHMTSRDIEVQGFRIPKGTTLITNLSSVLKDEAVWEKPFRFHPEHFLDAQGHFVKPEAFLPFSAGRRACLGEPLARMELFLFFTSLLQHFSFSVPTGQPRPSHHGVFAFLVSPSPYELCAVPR
Protocol: as §3

CYP2C9 = target: T3, CYP2C9 (Homo sapiens, UniProt P11712); experiment: Reversible P450 inhibition in HLM; type: biochemical; settings: human liver microsomes, pH 7.4, probe S-(-)-warfarin
T3 construct: phosphate buffer (100 mM, pH 7.4) containing human liver microsomes (HLM); from tissue; host or cells: human liver microsomes
T3 sequence (P11712 whole entry): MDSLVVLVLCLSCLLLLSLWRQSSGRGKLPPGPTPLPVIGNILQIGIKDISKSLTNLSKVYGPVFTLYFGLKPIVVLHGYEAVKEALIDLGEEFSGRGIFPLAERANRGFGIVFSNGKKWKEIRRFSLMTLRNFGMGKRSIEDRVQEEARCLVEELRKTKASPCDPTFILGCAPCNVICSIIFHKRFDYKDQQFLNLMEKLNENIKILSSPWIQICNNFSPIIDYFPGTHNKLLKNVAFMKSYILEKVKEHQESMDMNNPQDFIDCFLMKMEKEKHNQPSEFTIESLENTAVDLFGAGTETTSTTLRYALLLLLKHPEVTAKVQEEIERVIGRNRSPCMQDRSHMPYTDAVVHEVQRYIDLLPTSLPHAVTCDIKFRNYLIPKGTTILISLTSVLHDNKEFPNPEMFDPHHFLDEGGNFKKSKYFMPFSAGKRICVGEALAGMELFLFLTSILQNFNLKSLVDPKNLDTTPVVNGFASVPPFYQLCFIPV
Protocol: as §3

[4] = WF-31, 40 mg/kg IV QW, day 0, 3, 7, 10, 13, 14, 21

SMILES | %Rad in bile [1] | %rad in feces [1] | %rad in urine [1] | IC50 (CYP3A4/5; pH 7.4, probe midazolam, substrate Midazolam) | IC50 (CYP3A4/5; pH 7.4, probe testosterone, substrate Testosterone) | Tumor growth inhibition (HCC2302 xenograft; HCC2302 xenograft, weekly doses of 20 or 40 mg/kg) | Tumor volume (mean) (HCC2302 xenograft; [4]) | Body weight (mean) ([2]; WF-31, 20 mg/kg IV QW, day 0, 3, 7, 10, 13, 14, 21) | Body weight (mean) [2, 4] | Body weight (mean) ([2]; WF-34, 40 mg/kg IV QW, day 0, 4, 8, 11, 15, 18, 22, 25, 29) | Bioavailability after PO administration [3] | IC50 (CYP2C19; human, human liver microsomes, pH 7.4, probe S-(+)-mephenytoin) | IC50 (CYP2C19) | IC50 (CYP2D6) | IC50 (CYP2C9)
Cc1ncsc1-c1ccc(C(C)NC(=O)C2CC(O)CN2C(=O)C(c2cc(N3CCC(CN4CCC(OC5CC(Oc6cc(N7C8CCC7CN(c7cc(-[14c]9[14cH][14cH][14cH][14cH][14c]9O)nnc7N)C8)ccn6)C5)CC4)CC3)no2)C(C)C)cc1 (stereo not drawn) [14C-A947] | 23.11% | 18.95% | 20.6% |  |  |  |  |  |  |  |  |  |  |  | 
Cc1ncsc1-c1ccc(C(C)NC(=O)C2CC(O)CN2C(=O)C(c2cc(N3CCC(CN4CCC(OC5CC(Oc6cc(N7C8CCC7CN(c7cc(-c9ccccc9O)nnc7N)C8)ccn6)C5)CC4)CC3)no2)C(C)C)cc1 (stereo not drawn) [A947] |  |  |  | 0.54 µM | > 10 µM | dose-dependent tumor growth inhibition | 202.88 mm^3 and 192.71 mm^3 and 203.88 mm^3 and 210.27 mm^3 and 204.46 mm^3 and 141.86 mm^3 and 179.41 mm^3 | 19.00 and 19.30 and 19.20 and 19.50 | 18.67 and 18.78 and 18.56 and 17.67 and 19.40 and 18.60 | 21.10 and 20.20 and 21.22 and 21.33 and 21.89 and 20.33 and 21.25 and 21.50 | did not find bioavailability | 3 µM | ~3 µM | > 10 µM | > 10 µM
